Key:
[1] = biological target: GDP-bound NRAS wild-type protein (Homo sapiens, UniProt P01111); assay: Binding to NRAS by surface plasmon resonance (SPR), Single Cycle Kinetics; conditions: ratio of KD for GDP-bound NRAS wild-type protein to KD for KRAS, SPR
[2] = biological target: GDP-bound HRAS wild-type protein (Homo sapiens, UniProt P01112); assay: Binding to HRAS by surface plasmon resonance (SPR), Single Cycle Kinetics; conditions: ratio of KD for GDP-bound HRAS wild-type protein to KD for KRAS, SPR
[3] = tested on: human lung cancer strain NCI-H441; assay: cells; conditions: NCI-H441, 96 h, read-out: NCI-H441 IC50 (nM), NCI-H441 cell proliferation, 4 days, CellTiter-Glo;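 further: cell proliferation inhibition after four days measured by CellTiter-Glo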
[4] = biological target: GDP-bound KRAS wild-type protein (Homo sapiens, UniProt P01116); assay: Binding to KRAS by surface plasmon resonance (SPR), Single Cycle Kinetics; conditions: SPR, Single Cycle Kinetics, GDP-bound KRAS wild-type protein; read-out: KRAS KD
Chain of GDP-bound KRAS wild-type protein (P01116 whole entry): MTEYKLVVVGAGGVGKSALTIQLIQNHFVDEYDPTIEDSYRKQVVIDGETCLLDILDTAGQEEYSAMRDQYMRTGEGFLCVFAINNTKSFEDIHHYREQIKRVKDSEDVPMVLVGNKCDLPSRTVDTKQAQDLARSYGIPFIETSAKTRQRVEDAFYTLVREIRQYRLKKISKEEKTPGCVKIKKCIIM

Chain of GDP-bound NRAS wild-type protein (P01111 whole entry): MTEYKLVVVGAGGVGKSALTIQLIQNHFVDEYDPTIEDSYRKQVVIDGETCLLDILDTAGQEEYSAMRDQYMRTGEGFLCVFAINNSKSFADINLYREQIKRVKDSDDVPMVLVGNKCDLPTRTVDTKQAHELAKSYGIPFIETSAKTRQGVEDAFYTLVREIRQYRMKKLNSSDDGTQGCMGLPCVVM
Chain of GDP-bound HRAS wild-type protein (P01112 whole entry): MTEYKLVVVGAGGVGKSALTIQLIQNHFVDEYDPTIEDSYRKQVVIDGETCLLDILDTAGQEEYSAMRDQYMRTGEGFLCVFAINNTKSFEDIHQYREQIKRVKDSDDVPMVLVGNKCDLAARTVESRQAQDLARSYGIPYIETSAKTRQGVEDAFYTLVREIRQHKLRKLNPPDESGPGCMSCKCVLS

IC50 [3] | Kd [4] | Compound | NRAS/KRAS (KD ratio) [1] | HRAS/KRAS (KD ratio) [2]
13.1 nM | 0.46 nM | CC[C@H](C)[C@@H]1NC(=O)[C@H](CC)N(C)C(=O)C[C@@H](C(=O)N(C)C)N(C)C(=O)[C@H](C2CCCC2)N(C)C(=O)C2(CC(C)(C)C2)NC(=O)[C@H](CC)N(C)C(=O)[C@H](CCc2cc(F)c(C(F)(F)F)c(F)c2)NC(=O)CN(C)C(=O)[C@H](Cc2ccc(C(F)(F)F)cc2)N2CC/C=C\C[C@@H](C2=O)N(C)C(=O)CN(C)C1=O [PP1935] | A (a compound having 10 or more and less than 20 is denoted as A) | A (a compound having 10 or more and less than 20 is denoted as A)
4.6 nM | 0.098 nM | CCO[C@@H]1C[C@H]2C(=O)NC3(CC(C)(C)C3)C(=O)N(C)[C@@H](C3CCCC3)C(=O)N(C)[C@H](C(=O)N(C)C)CC(=O)N(C)[C@@H](C)C(=O)N[C@@H]([C@@H](C)CC)C(=O)N(C)CC(=O)N(C)[C@H]3C/C=C\CCN(C3=O)[C@@H](Cc3ccc(C(F)(F)F)cc3)C(=O)N(C)CC(=O)N[C@@H](CCc3cc(F)c(C(F)(F)F)c(F)c3)C(=O)N2C1 [PP1641] | A (a compound having 10 or more and less than 20 is denoted as A) | A (a compound having 10 or more and less than 20 is denoted as A)
25.7 nM | 0.15 nM | CCO[C@@H]1C[C@H]2C(=O)NC3(CC(C)(C)C3)C(=O)N(C)[C@@H](C3CCCCC3)C(=O)N(C)[C@H](C(=O)N(C)C)CC(=O)N(C)[C@@H](CC)C(=O)N[C@@H]([C@@H](C)CC)C(=O)N(C)CC(=O)N(C)[C@H]3C/C=C\CCN(C3=O)[C@@H](Cc3ccc(C(F)(F)F)cc3)C(=O)N(C)CC(=O)N[C@@H](CCc3cc(F)c(C(F)(F)F)c(F)c3)C(=O)N2C1 [PP1942] | AA (a compound having 20 or more is denoted as AA) | A (a compound having 10 or more and less than 20 is denoted as A)
